Source: patent US20050245473A1, “Proliferation- and differentiation-modulating agents and uses therefor” (priority 2003, published 2005)
Entries after “also recorded” stand apart in the source; their conditions may differ.

Key:
Assay type in all cases: cell-based
[1] = tested on: keratin 10 promoter linked to a firefly luciferase gene (K10-Luc); test: K10-Luc reporter assay in transfected human epidermal keratinocytes (HEKs)
Method: (§1) Human epidermal keratinocytes (HEKs) were isolated and cultured from neonatal foreskins as described (1). The SCC cell line, KJD-1/SV40, were grown in culture as previously reported (2). Growth arrest and differentiation was induced by maintaining confluent cells in culture over 48 hours or by treatment with the protein kinase C (PKC) activator, 12-Otetradecanoyl-phorbol-13-acetate (TPA, 50 ng/ml for 48 hours). Both these treatment regimes induce robust and reproducible differentiation in HEKs but not in SCC cell lines (2, 41-43).
(§2) The human cdc2 promoter construct driving expression of a CAT reporter gene (cdc2-CAT) has been previously described (6). The 2.9kb transglutaminase type 1 promoter linked to a firefly luciferase gene (TG-1 Luc), keratin 10 reporter (K10-Luc), β actin-CAT reporter gene and β actin-luciferase reporter gene have also been previously described (2, 6, 41, 44, 45). β actin-CAT or β actin-Luc reporters were used to normalize for transfection efficiency. The CMV-E2F1 construct was a kind gift from Dr Kristian Helin (16). The CMV-E2F 2-5 constructs were generous gifts from Dr David Livingston (46). The mutant E2F1 constructs, 132E2F1 and 409E2F1, were kindly provided by Dr Joseph Nevins (47). The E2F1 dominant-negative (E2Fd/n) construct codes for amino acids 116-235, spanning for the DNA binding domain and heterodimerisation domain (2).
(§3) Transient transfections of cells were performed in 10 cm^2 well, when cells were either 50% or 100% confluent. Reporter activity was assayed 48 hours post-transfection. Transfection protocols for cultured HEKs using Lipofectamine™ (Invitrogen, Australia) and KJD-1/SV40 cells using Effectene (Qiagen, Australia) have been described previously (2). Transfections were performed in triplicate and repeated at least three times.
(§4) Chloramphenicol acetyltransferase assays (CAT) were performed using a CAT ELISA kit (Roche, Australia) as per manufacturer's instructions. The luciferase assay protocol has been previously reported (6, 41).

[2] = tested on: transglutaminase type 1 promoter linked to a firefly luciferase gene (TG-1 Luc); test: TG-1 Luc reporter assay in transfected human epidermal keratinocytes (HEKs)
Method: as §1, §2, §3, §4

[3] = tested on: transglutaminase-1 promoter (TG-1 Luc) in KJD-1/SV40 cells; test: TG-1 Luc reporter assay in KJD-1/SV40 squamous cell carcinoma cells; details: proliferating KJD-1/SV40 cells; TPA 50 ng/ml for 48 hours where used; FIG. 6
Method: as §1
as §2, with “(2). […]” for “(2).”

[4] = tested on: human cdc2 promoter (cdc2-CAT); test: cdc2-CAT reporter assay in transfected human epidermal keratinocytes (HEKs); details: proliferating HEKs co-transfected with expression plasmid
Method: as §1
as §2, with “(2). […]” for “(2).”

[5] = differentiated (confluent or TPA-treated) HEKs co-transfected with expression plasmid, assayed 48 hours post-transfection
[6] = cultured HEKs induced to differentiate by treatment with TPA (50 ng/ml for 48 hours), FIG. 1

Row | Compound | K10-Luc activity [1, 5] | TG-1 Luc activity [2, 5] | TG-1 Luc activity ([2]; proliferating HEKs transfected with E2Fd/n) | TG-1 Luc activity [3] | cdc2-CAT reporter activity (proliferation-specific marker) [4] | K10-Luc activity [1, 6] | TG-1 Luc activity [2, 6]
1 | E2Fd/n: E2F1 dominant-negative construct coding for amino acids 116-235, spanning the DNA binding domain and heterodimerisation domain | superinduces/derepresses | superinduce/derepress; also recorded: superinduces/derepresses | not sufficient to induce | not altered | suppression |  | 
2 | CCCCCCCCCCCCCC(=O)O[C@@H]1[C@@H](C)[C@@]2(O)[C@@H](C=C(CO)C[C@]3(O)C(=O)C(C)=C[C@@H]23)[C@@H]2C(C)(C)[C@]12OC(C)=O [TPA, 12-O-tetradecanoylphorbol-13-acetate, reference compound] |  |  |  | no induction |  | increased | increased
3 | E2F1: E2F1 transcription factor overexpressed from the CMV-E2F1 expression plasmid | significantly suppressed | significantly suppressed; also recorded: suppresses |  |  |  |  | 
